Values of other authors in patent publication US20230263755A1, “STABILIZATION OF ACETAMINOPHEN IN AQUEOUS SOLUTION” (Nostrum Pharmaceuticals, LLC, priority 2022, published 2023).

half-life: about 2 hours
SMILES: CC(=O)Nc1ccc(O)cc1 [acetaminophen, N-(4-hydroxyphenyl)acetamide]
